Measured values reported in patent US12552770B2, “Compounds for treating respiratory disease” (TMEM16A Limited, priority 2020, dated 2026).

Target: T1, human TMEM16A (TMEM16Aabc variant) (Homo sapiens, UniProt Q5XXA6, DEL476-501)
T1 sequence (Q5XXA6 with tags, fused parts or gaps isoform Q5XXA6-5 DEL539-564): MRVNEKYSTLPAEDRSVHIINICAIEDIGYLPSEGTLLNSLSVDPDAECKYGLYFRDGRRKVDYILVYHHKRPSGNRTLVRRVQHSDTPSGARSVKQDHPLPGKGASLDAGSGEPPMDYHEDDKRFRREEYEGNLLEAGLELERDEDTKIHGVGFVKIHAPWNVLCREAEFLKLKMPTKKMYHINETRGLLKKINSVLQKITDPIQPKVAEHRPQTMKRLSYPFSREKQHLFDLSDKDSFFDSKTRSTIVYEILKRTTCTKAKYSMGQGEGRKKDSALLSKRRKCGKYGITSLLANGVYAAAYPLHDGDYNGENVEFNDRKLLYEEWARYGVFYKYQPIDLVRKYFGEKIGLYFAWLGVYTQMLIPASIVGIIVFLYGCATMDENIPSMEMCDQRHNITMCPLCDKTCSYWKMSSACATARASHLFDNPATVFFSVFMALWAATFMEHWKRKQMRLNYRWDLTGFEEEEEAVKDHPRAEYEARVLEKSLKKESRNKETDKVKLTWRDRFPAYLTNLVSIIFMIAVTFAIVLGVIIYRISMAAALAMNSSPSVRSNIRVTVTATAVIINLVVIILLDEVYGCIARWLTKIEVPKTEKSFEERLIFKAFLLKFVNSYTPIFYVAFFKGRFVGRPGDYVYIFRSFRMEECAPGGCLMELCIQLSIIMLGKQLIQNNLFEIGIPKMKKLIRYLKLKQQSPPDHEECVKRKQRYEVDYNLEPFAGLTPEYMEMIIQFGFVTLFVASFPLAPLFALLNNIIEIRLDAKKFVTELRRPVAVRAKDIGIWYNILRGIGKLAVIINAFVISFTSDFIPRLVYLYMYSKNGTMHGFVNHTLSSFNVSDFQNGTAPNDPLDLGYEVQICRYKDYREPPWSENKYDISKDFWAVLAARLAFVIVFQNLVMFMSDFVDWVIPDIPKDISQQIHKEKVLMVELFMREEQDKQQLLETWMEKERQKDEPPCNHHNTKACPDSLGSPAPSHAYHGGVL
Assay: Automated whole-cell patch clamp (Qpatch) TMEM16A potentiator assay in recombinant cells
Type: cell-based
Settings: FRT cells stably expressing human TMEM16A, intracellular calcium at EC20; for % Potentiation @ 3.33 μM Avg: 3.33 μM solution of test compound, percentage increase of baseline TMEM16A current, peak current at +70 mV; for EC50: calculated from cumulative concentration response curve, whole-cell patch clamp
Experimental: Automated Whole-Cell Patch Clamp Assay to Detect TMEM16A Activity in Recombinant Cells
Cell Culture and Preparation
Fisher rat thyroid (FRT) cells stably expressing human TMEM16A (TMEM16Aabc variant; Dr Luis Galietta, Insituto Giannina, Italy) were cultured in T-75 flasks in Hams F-12 media with Coon's modification (Sigma) supplemented with 10% (v/v) foetal bovine serum, penicillin-streptomycin (10,000 U/mL/10000 μg/mL), G-418 (750 μg/mL), L-glutamine (2 mM) and sodium bicarbonate solution (7.5% v/v). At ˜90% confluence cells were harvested for experiments by detachment with a 2:1 (v/v) mixture of Detachin (BMS Biotechnology) and 0.25% (w/v) trypsin-EDTA. Cells were diluted to a density of 3.5-4.5×10^6 cells/mL with media consisting of CHO-S-SFM II (Sigma), 25 mM HEPES (Sigma) and Soy bean trypsin inhibitor (Sigma).
Whole-Cell Patch Clamp Recording
FRT-TMEM16A cells were whole-cell patch clamped using an automated planar patch clamp system (Qpatch, Sophion). Briefly, once high resistance (GOhm) seals were established between the cells and the planar recording array the patch was ruptured using suction pulses to establish the whole-cell recording configuration of the patch clamp technique. The assay employed the following solutions (all reagents Sigma):
Intracellular solution (mM): N-methyl-D-glucamine 130, CaCl2 18.2, MgCl2 1, HEPES 10, EGTA 10, BAPTA 20, Mg-ATP 2, pH 7.25, 325 mOsm with sucrose.
Extracellular solution (mM): N-methyl-D-glucamine 130, CaCl2 2, MgCl2 1, HEPES 10, pH 7.3, 320 mOsm with sucrose.
The intracellular solution buffers intracellular calcium at levels required to give ˜20% activation of the maximal TMEM16A mediated current (EC20 for calcium ions). Cells were voltage clamped at a holding potential of −70 mV and a combined voltage step (to +70 mV)/ramp (−90 my to +90 mV) was applied at 0.05 Hz. After a period of current stabilisation test compounds, solubilised in 100% (v/v) DMSO and subsequently diluted into extracellular solution, were applied to generate a cumulative concentration response curve. Each concentration of test compound was incubated for 5 minutes before addition of the next concentration. After the final concentration was tested a supramaximal concentration of either a known active positive modulator or the TMEM16A inhibitor, CaCCinhA01 (Del La Fuente et al, 2008) was added to define the upper and lower limits of the assay.
Compound activity was quantified by measuring the increase in current upon compound addition and expressing this as a percentage increase of baseline TMEM16A current level. Percentage increases in current were determined for each concentration and the data plotted as a function of concentration using either the Qpatch software or Graphpad Prism v6.05 providing the concentration which gave 50% of its maximal effect (EC50) and maximum efficacy (percentage of baseline increase).
In FIG. 1, IBL equals baseline current, I[#1] equals the peak current during test compound concentration 1 incubation period and so on.
Peak TMEM16A current at +70 mV was plotted as a function of time over the assay period. Baseline current (IBL) was measured after a period of stabilisation. The increase in current for each compound addition was determined by taking the peak current during the incubation period and subtracting the current from the previous recording period and then expressing this as a percentage of the baseline current. For test compound concentration 1 in FIG. 1 this is:
For each additional concentration tested the increase in current was determined by subtracting the current from the previous incubation period and normalising the baseline value—for test concentration 2 in FIG. 1 this is:
The values for each test concentration were plotted as a cumulative function of concentration e.g. for test concentration two this would be the sum of the peak changes measured during concentration one plus concentration two.

Row | Compound | % Potentiation @ 3.33 μM Avg [%] | EC50 [nM]
1 | CC(C)(C)Cc1nc2cc(NC(=O)Cc3cc(Cl)ccc3O)ccc2[nH]1 [Example 26, 2-(5-Chloro-2-hydroxy-phenyl)-N-[2-(2,2-dimethylpropyl)-1H-benzimidazol-5-yl]acetamide] | 69 | 98
2 | CC(C)(C)c1nc2cc(NC(=O)Cc3cc(Cl)ccc3O)ccc2[nH]1 [Example 27, N-(2-tert-Butyl-1H-benzimidazol-5-yl)-2-(5-chloro-2-hydroxy-phenyl)acetamide] | 96 | 156
3 | CC1(c2nc3ccc(C(=O)NCC4CCCCCC4)cc3[nH]2)CCC1 [Example 28, N-(Cycloheptylmethyl)-2-(1-methylcyclobutyl)-3H-benzimidazole-5-carboxamide] | 82 | 610
4 | CC(C)(CO)c1cc(F)c(Cc2nc3cc(C(=O)NCC4(C(F)(F)F)CC4)ccc3[nH]2)cc1O [Example 29, 2-[[2-Fluoro-5-hydroxy-4-(2-hydroxy-1,1-dimethyl-ethyl)phenyl]methyl]-N-[[1-(trifluoromethyl)cyclopropyl]methyl]-1H-benzimidazole-5-carboxamide] | 183 | 496
5 | CC(C)(CO)c1cc(F)c(CNC(=O)c2ccc3[nH]c(C4(C(F)(F)F)CC4)nc3c2)cc1O [Example 30, N-[[2-Fluoro-5-hydroxy-4-(2-hydroxy-1,1-dimethyl-ethyl)phenyl]methyl]-2-[1-(trifluoromethyl)cyclopropyl]-1H-benzimidazole-5-carboxamide] | 66 | –
6 | CC(C)(O)c1cc(F)c(Cc2nc3cc(C(=O)NCCC(F)(F)F)ccc3[nH]2)cc1O [Example 31, 2-[[2-Fluoro-5-hydroxy-4-(1-hydroxy-1-methyl-ethyl)phenyl]methyl]-N-(3,3,3-trifluoropropyl)-1H-benzimidazole-5-carboxamide] | 158 | –
7 | CC(C)(CO)c1cc(F)cc(Cc2nc3cc(C(=O)NCC4(C(F)(F)F)CC4)ccc3[nH]2)c1O [Example 32, 2-[[5-Fluoro-2-hydroxy-3-(2-hydroxy-1,1-dimethyl-ethyl)phenyl]methyl]-N-[[1-(trifluoromethyl)cyclopropyl]methyl]-1H-benzimidazole-5-carboxamide] | 56.6 | 227

Second part, the molecule after the results:

Row | % Potentiation @ 3.33 μM Avg [%] | EC50 [nM] | Compound
8 | 142 | 76 | O=C(NCC1CCCCCC1)c1ccc2[nH]c(Cc3cc(F)ccc3O)nc2c1 [Example 25.1, N-(Cycloheptylmethyl)-2-[(5-fluoro-2-hydroxy-phenyl)methyl]-1H-benzimidazole-5-carboxamide]
9 | 83 | 200 | O=C(NCC1CCCCCC1)c1ccc2[nH]c(Cc3cccc(F)c3O)nc2c1 [Example 25.2, N-(Cycloheptylmethyl)-2-[(3-fluoro-2-hydroxy-phenyl)methyl]-1H-benzimidazole-5-carboxamide]
10 | 104 | 76 | O=C(NCC1CCCCCC1)c1ccc2[nH]c(Cc3ccccc3O)nc2c1 [Example 25.3, N-(Cycloheptylmethyl)-2-[(2-hydroxyphenyl)methyl]-1H-benzimidazole-5-carboxamide]
11 | 120 | 130 | O=C(NCC1CCCCCC1)c1ccc2[nH]c(Cc3ccc(F)cc3O)nc2c1 [Example 25.4, N-(Cycloheptylmethyl)-2-[(4-fluoro-2-hydroxy-phenyl)methyl]-1H-benzimidazole-5-carboxamide]
12 | 66 | 223 | O=C(NCC1CCCCCC1)c1ccc2[nH]c(Cc3cccc(O)c3)nc2c1 [Example 25.5, N-(Cycloheptylmethyl)-2-[(3-hydroxyphenyl)methyl]-1H-benzimidazole-5-carboxamide]
13 | 108 | – | CC(C)(O)c1cc(F)c(Cc2nc3cc(C(=O)NC4(C(F)(F)F)CC4)ccc3[nH]2)cc1O [Example 31.1, 2-[[2-Fluoro-5-hydroxy-4-(1-hydroxy-1-methyl-ethyl)phenyl]methyl]-N-[1-(trifluoromethyl)cyclopropyl]-1H-benzimidazole-5-carboxamide]
